The text below walks through data of PubChem BioAssay AID330 (DTP/NCI, 2004).

Where “and” joins values, the source holds several entries; their conditions need not be identical. Identical values can stand only once. Toxic doses and inconclusive results are not listed.

The assay has as its system P388 leukemia ip, CD2F1 mice, survival T/C. Description: NCI In Vivo Anticancer Drug Screen. Data for tumor model P388 Leukemia (intraperitoneal) in CD2F1 (CDF1) mice. The following applies: endpoint: median survival time, higher = longer survival. The gist of the method: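 Mice carrying the transplanted tumor received test compound or vehicle. Survival was recorded in each group, and the value is the treated-group measurement divided by that of the vehicle-treated control group.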

[1] abbreviates: dose: 6.25 mg/kg/injection, schedule: Q01DX009 (ip), vehicle: Klucel (hydroxypropylcellulose) (HPC).
The mark [2] stands for this setting: dose: 12.5 mg/kg/injection, schedule: Q01DX009 (ip), vehicle: Klucel (hydroxypropylcellulose) (HPC).
Setting [3] is: dose: 25.0 mg/kg/injection, schedule: Q01DX009 (ip), vehicle: Klucel (hydroxypropylcellulose) (HPC).
The mark [4] stands for this setting: dose: 50.0 mg/kg/injection, schedule: Q01DX009 (ip), vehicle: Klucel (hydroxypropylcellulose) (HPC).
The mark [5] stands for this setting: dose: 100.0 mg/kg/injection, schedule: Q01DX009 (ip), vehicle: Klucel (hydroxypropylcellulose) (HPC).
Where [6] appears, read: dose: 50.0 mg/kg/injection, schedule: Q01DX009 (ip), vehicle: saline with Tween-80.
Where [7] appears, read: dose: 100.0 mg/kg/injection, schedule: Q01DX009 (ip), vehicle: saline with Tween-80.
The mark [8] stands for this setting: dose: 200.0 mg/kg/injection, schedule: Q01DX009 (ip), vehicle: saline with Tween-80.
[9] abbreviates: dose: 25.0 mg/kg/injection, schedule: Q01DX009 (ip), vehicle: saline with Tween-80.
Where [10] appears, read: dose: 100.0 mg/kg/injection, schedule: Q04DX002 (ip), vehicle: saline with Tween-80.
Setting [11] is: dose: 200.0 mg/kg/injection, schedule: Q04DX002 (ip), vehicle: saline with Tween-80.
Setting [12] is: dose: 50.0 mg/kg/injection, schedule: Q01DX005 (ip), vehicle: saline with Tween-80.
[13] abbreviates: dose: 100.0 mg/kg/injection, schedule: Q01DX005 (ip), vehicle: saline with Tween-80.
Where [14] appears, read: dose: 200.0 mg/kg/injection, schedule: Q01DX005 (ip), vehicle: saline with Tween-80.
[15] abbreviates: dose: 400.0 mg/kg/injection, schedule: Q01DX009 (ip), vehicle: saline with Tween-80.

Regarding `CC1(C)OC2COC3OC(C)(C)OC3(/C=N\NC(=O)c3cc4cc(OCc5ccccc5)ccc4[nH]3)C2O1` (configuration not stated), the T/C by setting is: (dose: 50.0 mg/kg/injection, schedule: Q01DX005 (ip), vehicle: Klucel (hydroxypropylcellulose) (HPC)) 101 % of control; (dose: 100.0 mg/kg/injection, schedule: Q01DX005 (ip), vehicle: Klucel (hydroxypropylcellulose) (HPC)) 95 % of control; (dose: 200.0 mg/kg/injection, schedule: Q01DX005 (ip), vehicle: Klucel (hydroxypropylcellulose) (HPC)) 97 % of control.
`CCN(CC)CCNc1ccc([N+](=O)[O-])cc1[N+](=O)[O-]`: the T/C under setting [1] is 93 % of control, the T/C under setting [2] was 105 % of control, the T/C under setting [3] was 114 % of control and the T/C under setting [4] was 99 % of control.
For the compound `CN1C(=O)Cn2c(n[nH]c(=O)c2=O)-c2cc(Cl)ccc21`, the T/C runs as follows: under setting [4], 95 % of control; under setting [5], 86 % of control.
For `c1ccc(C2OCC3(CO2)COC(c2ccccc2)OC3)cc1` (configuration not stated), the T/C under setting [6] was 90 % of control, the T/C under setting [7] was 100 % of control and the T/C under setting [8] is 90 % of control.
As for `C[CH2][Sn]1([CH2]C)[O]S(=O)(=O)[O]1`, the T/C (dose: 1.56 mg/kg/injection, schedule: Q01DX005 (ip), vehicle: saline) is 124 % of control.
Consider `CCSCCC(N)C(=O)O` (configuration not stated), for which the T/C (dose: 12.5 mg/kg/injection, schedule: Q01DX009 (ip), vehicle: saline with Tween-80) was 95 % of control; the T/C under setting [9] was 100 % of control; the T/C under setting [6] is 100 % of control; the T/C (dose: 100.0 mg/kg/injection, schedule: Q04DX003 (ip), vehicle: saline with Tween-80) is 104 % of control; the T/C (dose: 200.0 mg/kg/injection, schedule: Q04DX003 (ip), vehicle: saline with Tween-80) was 100 % of control; the T/C (dose: 400.0 mg/kg/injection, schedule: Q04DX003 (ip), vehicle: saline with Tween-80) was 109 % of control.
For `O=c1cc(-c2ccccc2)c2ccc(O)c(CN(CCO)CCO)c2o1`, the T/C reads like this: under setting [10], 89 % of control; under setting [11], 89 % of control.
Take `Oc1ccc(CCNCc2ccc3c(c2)OCO3)cc1O`: the T/C by setting is: (dose: 100.0 mg/kg/injection, schedule: Q04DX002 (ip), vehicle: Klucel (hydroxypropylcellulose) (HPC)) 99 % of control; (dose: 200.0 mg/kg/injection, schedule: Q04DX002 (ip), vehicle: Klucel (hydroxypropylcellulose) (HPC)) 94 % of control.
For `Cc1nc2c(sc3ccccc3n2C)c2nc3c(sc4ccccc4n3C)c(C)c12`, the T/C is 92 % of control under setting [12], 90 % of control under setting [13] and 86 % of control under setting [14].
In the case of `C=CC(C)(C)C12CC3C(=O)N/C(=C\c4cnc[nH]4)C(=O)N3C1Nc1ccccc12` (configuration not stated), the T/C is 118 % of control and 97 % of control under setting [1]; 86 % of control (dose: 6.25 mg/kg/injection, schedule: Q01DX009 (ip), vehicle: saline with Tween-80); 116 % of control and 95 % of control under setting [2]; 98 % of control and 106 % of control under setting [3]; 92 % of control under setting [9]; 106 % of control and 109 % of control under setting [4]. Under setting [6], the T/C was 100 % of control.
In the case of `COc1cc(/C=C2\NC(=S)N(c3ccccc3)C2=O)ccc1O`, the T/C runs as follows: under setting [12], 100 % of control and 109 % of control; under setting [13], 100 % of control and 101 % of control and 86 % of control; under setting [14], 100 % of control and 101 % of control and 86 % of control; (dose: 400.0 mg/kg/injection, schedule: Q01DX005 (ip), vehicle: saline with Tween-80) 99 % of control and 100 % of control and 104 % of control.
In the case of `CC(C)(C)c1cc(C(C)(C)c2ccccc2)cc(Cc2cc(C(C)(C)c3ccccc3)cc(C(C)(C)C)c2O)c1O`, the T/C is, setting by setting: under setting [6], 92 % of control; under setting [7], 94 % of control; under setting [8], 93 % of control; under setting [15], 89 % of control.
Turning to `CCSc1nnc(C2CCC(=O)N2Cc2ccccc2)o1` (configuration not stated), the T/C by setting is: (dose: 60.0 mg/kg/injection, schedule: Q01DX005 (ip), vehicle: saline with Tween-80) 94 % of control; (dose: 120.0 mg/kg/injection, schedule: Q01DX005 (ip), vehicle: saline with Tween-80) 100 % of control; (dose: 240.0 mg/kg/injection, schedule: Q01DX005 (ip), vehicle: saline with Tween-80) 100 % of control.
`CN1C(=O)/C(=[N+](/[O-])c2ccccc2-c2ccccc2)c2ccccc21`: the T/C by setting is: under setting [10], 99 % of control; under setting [11], 100 % of control; (dose: 400.0 mg/kg/injection, schedule: Q04DX002 (ip), vehicle: saline with Tween-80) 97 % of control.
As to `N#CNC(=Nc1ccccc1)[N](C#N)[Sn]([c]1ccccc1)([c]1ccccc1)[c]1ccccc1`, the T/C runs as follows: (dose: 1.56 mg/kg/injection, schedule: Q01DX005 (ip), vehicle: Klucel (hydroxypropylcellulose) (HPC)) 100 % of control; (dose: 3.12 mg/kg/injection, schedule: Q01DX005 (ip), vehicle: Klucel (hydroxypropylcellulose) (HPC)) 102 % of control; (dose: 6.25 mg/kg/injection, schedule: Q01DX005 (ip), vehicle: Klucel (hydroxypropylcellulose) (HPC)) 103 % of control and 97 % of control.
In the case of `On1cnc(=S)c2[nH]cnc21`, the T/C was 90 % of control under setting [7]; 100 % of control (dose: 100.0 mg/kg/injection, schedule: Q04DX003 (ip), vehicle: saline sonified); 100 % of control under setting [8]; 100 % of control (dose: 200.0 mg/kg/injection, schedule: Q04DX003 (ip), vehicle: saline sonified); 109 % of control under setting [15]; 90 % of control (dose: 400.0 mg/kg/injection, schedule: Q04DX003 (ip), vehicle: saline sonified).
Regarding `Cc1csc(N=Nc2ccc(N(C)C)cc2)[n+]1[O-]`, the T/C is, setting by setting: under setting [4], 103 % of control; under setting [5], 109 % of control; (dose: 200.0 mg/kg/injection, schedule: Q01DX009 (ip), vehicle: Klucel (hydroxypropylcellulose) (HPC)) 108 % of control.
As to `CCCCCCCCOC(=O)CP(=O)(O)O`, the T/C is 100 % of control under setting [6] and 96 % of control under setting [7].
With `Cc1cc(NC(=O)CCc2ccc(N3C(N)=NC(N)=NC3(C)C)cc2)ccc1S(=O)(=O)F`, the T/C by setting is: (dose: 1.5 mg/kg/injection, schedule: Q01DX009 (ip), vehicle: saline sonified) 122 % of control; under setting [9], 150 % of control; under setting [7], 113 % of control.
As for `O=N[O-].[Co].[N-]=C=S.[NH2-].[NH2-].[NH2-].[NH2-]`, the T/C was 110 % of control (dose: 12.5 mg/kg/injection, schedule: Q04DX003 (ip), vehicle: saline with Tween-80); 120 % of control (dose: 25.0 mg/kg/injection, schedule: Q04DX003 (ip), vehicle: saline with Tween-80); 120 % of control (dose: 50.0 mg/kg/injection, schedule: Q04DX003 (ip), vehicle: saline with Tween-80).
On to `O=C(COCC(=O)N/N=C/c1ccc(Cl)cc1)N/N=C/c1ccc(Cl)cc1`, for which the T/C (dose: 6.25 mg/kg/injection, schedule: Q01DX005 (ip), vehicle: saline with Tween-80) is 95 % of control; the T/C (dose: 12.5 mg/kg/injection, schedule: Q01DX005 (ip), vehicle: saline with Tween-80) was 95 % of control; the T/C under setting [14] was 95 % of control.
Consider `CCC(C)C(NC=O)C(=O)O` (configuration not stated), for which the T/C is 93 % of control under setting [12], 100 % of control under setting [13] and 100 % of control under setting [14].
With `O=C1CCc2cc(O)ccc21`, the T/C reads like this: (dose: 25.0 mg/kg/injection, schedule: Q01DX009 (ip), vehicle: saline) 108 % of control; (dose: 50.0 mg/kg/injection, schedule: Q01DX009 (ip), vehicle: saline) 94 % of control; (dose: 100.0 mg/kg/injection, schedule: Q01DX009 (ip), vehicle: saline) 98 % of control; (dose: 200.0 mg/kg/injection, schedule: Q01DX009 (ip), vehicle: saline) 100 % of control.
As for `O=C(O)CC1OCC=C2CN3CCC45c6ccccc6NC4C1C2CC35` (configuration not stated), the T/C is 100 % of control (dose: 0.93 mg/kg/injection, schedule: Q01DX005 (ip), vehicle: Klucel (hydroxypropylcellulose) (HPC)); 98 % of control (dose: 1.87 mg/kg/injection, schedule: Q01DX005 (ip), vehicle: Klucel (hydroxypropylcellulose) (HPC)); 100 % of control (dose: 7.5 mg/kg/injection, schedule: Q01DX005 (ip), vehicle: saline with Tween-80); 100 % of control (dose: 15.0 mg/kg/injection, schedule: Q01DX005 (ip), vehicle: saline with Tween-80); 100 % of control (dose: 30.0 mg/kg/injection, schedule: Q01DX005 (ip), vehicle: saline with Tween-80).
